Data set [1] has as its target full-length P. pyralis luciferase (Photinus pyralis, UniProt P08659, K549A/L550V/N119G/N50D/S548I). It counts as cell-based. The conditions noted are these: CC_NCI screening, normalized to on-plate 0.3% DMSO controls; for Luciferase Assay % Lum: full-length luciferase counter-screen luminescence; for Luciferase Assay Z-score: full-length luciferase counter-screen. (In general: The purpose of a counterscreen is to sort out artefacts and off-target activity.)

In data set [2] the target is T1, FGF14:Nav1.6 C-tail complex (Homo sapiens, UniProt Q92915+Q9UQD0).
T1 construct: polymerase chain reaction (PCR) amplification of the FGF14 open reading frame (nt 1–855); C-terminal fragment of Nav1.6 (amino acids 1763–1976) fused with CD4ΔC-tail (amino acids 1–395); expressed in transfected cells
The experiment in a line: Split-luciferase complementation assay (LCA) in Clone V double stable HEK293 cells. It counts as cell-based. The conditions noted are these: for Split Luciferase Assay % Lum Set 1 / Split Luciferase Assay Z-score Set 1: biological replicate Set 1; for Split Luciferase Assay % Lum Set 1 / Split Luciferase Assay %Lum Set 2: normalized to on-plate 0.3% DMSO controls (n=16 per plate); for Split Luciferase Assay %Lum Set 2 / Split Luciferase Assay Z-score Set 2: biological replicate Set 2; for Split Luciferase Assay Z-score Set 1 / Split Luciferase Assay Z-score Set 2: normalized to on-plate 0.3% DMSO controls; for Split Luciferase Assay %Lum Avg: average of Set 1 and Set 2, normalized to 0.3% DMSO controls.

Setting [3] is: CC_NCI screening, LCA luminescence.

Structures can show the parent of a compound that is named as a salt. Where two headings read alike, the source gives them in different places. *1 amine or outer side, *2 acyl side, *3 side chain or, on linkers, in order; H or OH if unused. Where a SMILES comes first, the peptide text is derived from it. Bridges are numbered along the chain shown (N, C = ends). Roman numbers before positions name the chains, in order. [ ]: non-standard residue; d: D form. Actinocin(9to1) = Cc1c2oc3c(C)ccc(C(=O)[*:1])c3nc-2c(C(=O)[*:2])c(N)c1=O; NMeV = CN[C@H](C(=O)O)C(C)C; Sar = CNCC(=O)O

Chain of full-length P. pyralis luciferase (P08659 whole entry N50D/N119G/S548I/K549A/L550V, looked up): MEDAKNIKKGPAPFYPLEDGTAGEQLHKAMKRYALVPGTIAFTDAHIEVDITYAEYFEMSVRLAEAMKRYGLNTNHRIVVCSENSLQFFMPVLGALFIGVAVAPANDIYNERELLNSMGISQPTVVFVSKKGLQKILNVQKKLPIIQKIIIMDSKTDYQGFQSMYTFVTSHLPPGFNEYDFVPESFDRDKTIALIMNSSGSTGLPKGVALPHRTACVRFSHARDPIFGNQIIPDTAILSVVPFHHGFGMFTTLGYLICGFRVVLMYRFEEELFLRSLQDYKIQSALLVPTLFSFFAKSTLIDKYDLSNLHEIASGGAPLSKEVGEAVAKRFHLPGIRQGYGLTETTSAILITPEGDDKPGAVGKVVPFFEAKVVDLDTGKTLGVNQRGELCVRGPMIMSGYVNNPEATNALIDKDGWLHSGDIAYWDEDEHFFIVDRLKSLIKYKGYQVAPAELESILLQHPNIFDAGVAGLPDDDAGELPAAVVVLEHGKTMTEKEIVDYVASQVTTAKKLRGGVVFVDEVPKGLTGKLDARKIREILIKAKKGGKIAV
T1 sequence (Q92915 1-252 isoform Q92915-2): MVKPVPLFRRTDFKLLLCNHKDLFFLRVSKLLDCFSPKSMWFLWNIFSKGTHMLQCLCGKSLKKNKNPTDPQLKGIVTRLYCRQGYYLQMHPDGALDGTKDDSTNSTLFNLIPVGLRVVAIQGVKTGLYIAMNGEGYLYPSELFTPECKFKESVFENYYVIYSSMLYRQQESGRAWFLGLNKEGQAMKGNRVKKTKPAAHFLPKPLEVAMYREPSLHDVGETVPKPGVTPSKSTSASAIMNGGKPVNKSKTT
T1 sequence (Q9UQD0 1763-1976 limits assumed): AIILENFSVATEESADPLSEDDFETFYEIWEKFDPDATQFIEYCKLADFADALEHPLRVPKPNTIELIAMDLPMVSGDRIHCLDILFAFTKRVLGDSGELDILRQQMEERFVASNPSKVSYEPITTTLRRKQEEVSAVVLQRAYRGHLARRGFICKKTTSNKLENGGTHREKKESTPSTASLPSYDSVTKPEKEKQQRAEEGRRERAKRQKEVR

For `COc1cccc2c1C(=O)c1c(O)c3c(c(O)c1C2=O)C[C@@](O)(C(C)=O)C[C@@H]3O[C@H]1C[C@H](N)[C@H](O)[C@H](C)O1` [Daunorubicin hydrochloride], in data set [1], the “Luciferase Assay % Lum” value came to 65.12% and the “Luciferase Assay Z-score” value is -4.47. Besides, in data set [2] (setting [3]), the “Split Luciferase Assay % Lum Set 1” value stood at 48.16% and the “Split Luciferase Assay %Lum Set 2” value is 61.38%. For the same molecule, in data set [2] (CC_NCI screening, LCA), the “Split Luciferase Assay Z-score Set 1” value was -4.19 and the “Split Luciferase Assay Z-score Set 2” value is -3.14. Also, the “Split Luciferase Assay %Lum Avg” value in data set [2] (CC_NCI screening) came out at 54.77%. In the data set on Clone V cells (human, 16 h, 30 µM), the “Toxicity Assay % Fluor” value was 81.24% and the “Toxicity Assay Z-score” value is recorded as -2.62.
On to `Cc1c2oc3c(C)ccc(C(=O)N[C@@H]4C(=O)N[C@H](C(C)C)C(=O)N5CCC[C@H]5C(=O)N(C)CC(=O)N(C)[C@@H](C(C)C)C(=O)O[C@@H]4C)c3nc-2c(C(=O)N[C@@H]2C(=O)N[C@H](C(C)C)C(=O)N3CCC[C@H]3C(=O)N(C)CC(=O)N(C)[C@@H](C(C)C)C(=O)O[C@@H]2C)c(N)c1=O` [Dactinomycin] (I: T[dV]P[Sar][NMeV] / II: T[dV]P[Sar][NMeV]; ester I:1-I:C, II:1-II:C; linker I:N-II:N via Actinocin(9to1)), for which, in data set [1], the “Luciferase Assay % Lum” value stood at 95.88% and the “Luciferase Assay Z-score” value is given as -0.53. In addition, in data set [2] (setting [3]), the “Split Luciferase Assay %Lum Set 2” value came out at 65.54%. Further, in data set [2] (CC_NCI screening, LCA), the “Split Luciferase Assay Z-score Set 2” value was -2.80. Besides, the “Split Luciferase Assay %Lum Avg” value in data set [2] (CC_NCI screening) is recorded as 62.83%. In the data set on Clone V cells (human), the “Toxicity Assay % Fluor” value was 93.25% and the “Toxicity Assay Z-score” value was -0.94.
For `CC(C)[C@H](NS(=O)(=O)c1ccc(-c2ccc(Br)cc2)cc1)C(=O)O` [PD 166793], in data set [1], the “Luciferase Assay % Lum (full-length luciferase counter-screen)” value was found to be 99.99% and the “Luciferase Assay Z-score (full-length luciferase counter-screen)” value worked out at 0.00. Further, in data set [2] (CC_NCI screening), the “Split Luciferase Assay Z-score Set 1” value is 0.38, the “Split Luciferase Assay % Lum Set 1” value is given as 104.69%, the “Split Luciferase Assay Z-score Set 2” value is given as -1.11 and the “Split Luciferase Assay %Lum Set 2” value is recorded as 86.35%. Further, the “Split Luciferase Assay %Lum Avg” value in data set [2] is 95.52%. In addition, in the data set on Clone V cells, the “Toxicity Assay % Fluor (CTB cell viability fluorescence)” value is 105.53% and the “Toxicity Assay Z-score (CTB cell viability)” value is reported as 0.77.
Regarding `O=C1c2c(O)ccc(O)c2C(=O)c2c(NCCNCCO)ccc(NCCNCCO)c21` [Mitoxantrone], in data set [1], the “Luciferase Assay % Lum” value came to 40.29% and the “Luciferase Assay Z-score” value was -7.65. For the same molecule, in data set [2] (setting [3]), the “Split Luciferase Assay % Lum Set 1” value is 5.76% and the “Split Luciferase Assay %Lum Set 2” value was determined as 15.60%. For the same molecule, in data set [2] (CC_NCI screening, LCA), the “Split Luciferase Assay Z-score Set 1” value is listed as -7.62 and the “Split Luciferase Assay Z-score Set 2” value is listed as -6.87. Also, in data set [2] (CC_NCI screening), the “Split Luciferase Assay %Lum Avg” value stood at 10.68%. Also, in the data set with Clone V cells (human, 16 h, 30 µM), the “Toxicity Assay % Fluor” value is 90.67% and the “Toxicity Assay Z-score” value is reported as -1.30.
As to `CO[C@H]1C[C@@H]2CC[C@@H](C)[C@@](O)(O2)C(=O)C(=O)N2CCCC[C@H]2C(=O)O[C@H]([C@H](C)C[C@@H]2CC[C@@H](OC(=O)C(C)(CO)CO)[C@H](OC)C2)CC(=O)[C@H](C)/C=C(\C)[C@@H](O)[C@@H](OC)C(=O)[C@H](C)C[C@H](C)/C=C/C=C/C=C/1C` [Temsirolimus], in data set [1], the “Luciferase Assay % Lum” value stood at 68.61% and the “Luciferase Assay Z-score” value is recorded as -4.02. In data set [2] (setting [3]), the “Split Luciferase Assay % Lum Set 1” value turned out to be 50.33% and the “Split Luciferase Assay %Lum Set 2” value was found to be 62.42%. In data set [2] (CC_NCI screening, LCA), the “Split Luciferase Assay Z-score Set 1” value was -4.01 and the “Split Luciferase Assay Z-score Set 2” value is given as -3.06. Further, the “Split Luciferase Assay %Lum Avg” value in data set [2] (CC_NCI screening) is on record as 56.38%. Further, in the data set on Clone V cells, the “Toxicity Assay % Fluor” value was 93.12% and the “Toxicity Assay Z-score” value was -0.96.
Take `CN(NC(=O)CC(=O)NN(C)C(=S)c1ccccc1)C(=S)c1ccccc1` [ELESCLOMOL]: in data set [1], the “Luciferase Assay % Lum” value worked out at 99.01% and the “Luciferase Assay Z-score” value is reported as -0.13. In addition, in data set [2] (setting [3]), the “Split Luciferase Assay % Lum Set 1” value is 30.77% and the “Split Luciferase Assay %Lum Set 2” value was determined as 35.37%. In addition, in data set [2] (CC_NCI screening, LCA), the “Split Luciferase Assay Z-score Set 1” value is -5.60 and the “Split Luciferase Assay Z-score Set 2” value is given as -5.26. Besides, in data set [2] (CC_NCI screening), the “Split Luciferase Assay %Lum Avg” value was determined as 33.07%. In the data set on Clone V cells (human, 16 h, 30 µM), the “Toxicity Assay % Fluor” value is given as 74.49% and the “Toxicity Assay Z-score” value was -3.57.
`NC(=O)NO` [Hydroxyurea]: in data set [1], the “Luciferase Assay % Lum (full-length luciferase counter-screen)” value is reported as 102.60% and the “Luciferase Assay Z-score (full-length luciferase counter-screen)” value was determined as 0.33. For the same molecule, in data set [2] (CC_NCI screening), the “Split Luciferase Assay Z-score Set 1” value was -0.85, the “Split Luciferase Assay % Lum Set 1” value is on record as 89.47%, the “Split Luciferase Assay Z-score Set 2” value is recorded as 1.01 and the “Split Luciferase Assay %Lum Set 2” value is given as 112.35%. Further, the “Split Luciferase Assay %Lum Avg” value in data set [2] came to 100.91%. For the same molecule, in the data set on Clone V cells, the “Toxicity Assay % Fluor (CTB cell viability fluorescence)” value was 115.47% and the “Toxicity Assay Z-score (CTB cell viability)” value is on record as 2.16.
For the molecule `COC(=O)c1ccc2c(c1)NC(=O)/C2=C(\Nc1ccc(N(C)C(=O)CN2CCN(C)CC2)cc1)c1ccccc1` [BIBF-1120], in data set [1], the “Luciferase Assay % Lum” value is 102.06% and the “Luciferase Assay Z-score” value stood at 0.26. In data set [2] (setting [3]), the “Split Luciferase Assay % Lum Set 1” value amounted to 119.91% and the “Split Luciferase Assay %Lum Set 2” value stood at 123.80%. For the same molecule, in data set [2] (CC_NCI screening, LCA), the “Split Luciferase Assay Z-score Set 1” value is listed as 1.61 and the “Split Luciferase Assay Z-score Set 2” value was 1.94. Also, in data set [2] (CC_NCI screening), the “Split Luciferase Assay %Lum Avg” value was 121.85%. Further, in the data set with Clone V cells (human, 16 h, 30 µM), the “Toxicity Assay % Fluor” value was 89.46% and the “Toxicity Assay Z-score” value is on record as -1.47.
Consider `N#C/C(=C/c1ccc(O)c(O)c1)C(=O)NCc1ccccc1` [AG 490], for which, in data set [1], the “Luciferase Assay % Lum” value is recorded as 85.62% and the “Luciferase Assay Z-score” value was -1.84. For the same molecule, in data set [2] (setting [3]), the “Split Luciferase Assay % Lum Set 1” value is on record as 118.82% and the “Split Luciferase Assay %Lum Set 2” value came to 120.68%. Further, in data set [2] (CC_NCI screening, LCA), the “Split Luciferase Assay Z-score Set 1” value is listed as 1.52 and the “Split Luciferase Assay Z-score Set 2” value was 1.68. Moreover, in data set [2] (CC_NCI screening), the “Split Luciferase Assay %Lum Avg” value was determined as 119.75%. In the data set on Clone V cells, the “Toxicity Assay % Fluor” value is 89.42% and the “Toxicity Assay Z-score” value is recorded as -1.48.
Regarding `Cc1cccc(Nc2nc(-c3ccncc3)cs2)c1` [STF-62247], in data set [1], the “Luciferase Assay % Lum” value turned out to be 83.43% and the “Luciferase Assay Z-score” value is -2.12. In addition, in data set [2] (setting [3]), the “Split Luciferase Assay % Lum Set 1” value is 23.16% and the “Split Luciferase Assay %Lum Set 2” value was 33.29%. For the same molecule, in data set [2] (CC_NCI screening, LCA), the “Split Luciferase Assay Z-score Set 1” value is listed as -6.21 and the “Split Luciferase Assay Z-score Set 2” value was -5.43. In addition, the “Split Luciferase Assay %Lum Avg” value in data set [2] (CC_NCI screening) was 28.22%. In the data set on Clone V cells, the “Toxicity Assay % Fluor” value worked out at 98.46% and the “Toxicity Assay Z-score” value is on record as -0.22.
For the molecule `N.N.O=C([O-])C1(C(=O)[O-])CCC1.[Pt+2]` [Carboplatin], in data set [1], the “Luciferase Assay % Lum (full-length luciferase counter-screen)” value was found to be 96.43% and the “Luciferase Assay Z-score (full-length luciferase counter-screen)” value was -0.46. For the same molecule, in data set [2] (CC_NCI screening), the “Split Luciferase Assay Z-score Set 1” value was 0.82, the “Split Luciferase Assay % Lum Set 1” value is reported as 110.12%, the “Split Luciferase Assay Z-score Set 2” value came to 1.17 and the “Split Luciferase Assay %Lum Set 2” value was 114.43%. The “Split Luciferase Assay %Lum Avg” value in data set [2] was determined as 112.28%. For the same molecule, in the data set with Clone V cells, the “Toxicity Assay % Fluor (CTB cell viability fluorescence)” value is recorded as 109.23% and the “Toxicity Assay Z-score (CTB cell viability)” value was 1.29.

For the origin of these results see PMC6858373 (Scientific Reports, 2019).
